# Molecular target: Beta-lactamase TEM (Escherichia coli, UniProt P62593)
# Experiment: ChEBML_47839
# Description: The compound was tested for its inhibitory activity towards Class A TEM-1 beta-lactamase from Escherichia coli at 0.3 umol
# Chain of Beta-lactamase TEM (P62593 whole entry): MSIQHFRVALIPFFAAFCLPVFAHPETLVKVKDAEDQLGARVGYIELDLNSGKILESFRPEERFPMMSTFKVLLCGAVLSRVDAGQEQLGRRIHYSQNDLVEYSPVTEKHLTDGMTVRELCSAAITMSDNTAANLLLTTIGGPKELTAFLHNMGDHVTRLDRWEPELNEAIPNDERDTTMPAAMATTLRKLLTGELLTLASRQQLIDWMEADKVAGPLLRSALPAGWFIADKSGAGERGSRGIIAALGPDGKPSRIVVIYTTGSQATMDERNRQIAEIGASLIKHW
smiles,measurement,value
"C/C=C1/C(=O)N2C(C(=O)O)=C3CCCCC3[C@H]12 (stereo partly drawn) [Sodium; (R)-1-eth-(E)-ylidene-2-oxo-1,2,5,6,7,8,8a,8b-octahydro-azeto[2,1-a]isoindole-4-carboxylate]",IC50,120 µM
